Values belong to the compound of their own block, whether it stands above or below them.
Legend:
Papain = biological target: T1, Papain (Carica papaya, UniProt P00784); test: Ability to inhibit papain was evaluated by amidolytic method using fluorogenic or chromogenic substrates
T1 sequence (P00784 whole entry): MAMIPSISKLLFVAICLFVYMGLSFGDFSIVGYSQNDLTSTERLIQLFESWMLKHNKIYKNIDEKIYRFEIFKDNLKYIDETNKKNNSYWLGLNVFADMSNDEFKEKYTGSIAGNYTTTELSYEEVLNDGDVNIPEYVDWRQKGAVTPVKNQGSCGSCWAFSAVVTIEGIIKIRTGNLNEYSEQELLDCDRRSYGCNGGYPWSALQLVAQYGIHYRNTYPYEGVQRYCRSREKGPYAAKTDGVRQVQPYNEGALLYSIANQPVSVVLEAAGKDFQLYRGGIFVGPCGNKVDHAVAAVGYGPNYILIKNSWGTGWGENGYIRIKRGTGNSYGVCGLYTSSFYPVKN

Caspase-3 [1] = biological target: T2, Caspase-3 (Homo sapiens, UniProt P42574); test: Amidolytic activity of THP.1 cell lysate against Caspase-3 using C3-Asp-AMC as a substrate; format: cell-based
T2 sequence (P42574 whole entry): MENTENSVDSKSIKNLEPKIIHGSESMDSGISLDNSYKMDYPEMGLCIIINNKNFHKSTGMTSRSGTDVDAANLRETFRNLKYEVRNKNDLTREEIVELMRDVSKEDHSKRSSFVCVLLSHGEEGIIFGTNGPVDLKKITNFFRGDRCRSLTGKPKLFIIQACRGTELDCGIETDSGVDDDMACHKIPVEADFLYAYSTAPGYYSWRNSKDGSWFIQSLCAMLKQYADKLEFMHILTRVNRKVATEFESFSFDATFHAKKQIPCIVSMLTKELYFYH

Caspase-1 [2] = biological target: T3, Caspase-1 (Homo sapiens, UniProt P29466); test: Amidolytic activity of THP.1 cell lysate against IL-1 beta converting enzyme using C1-Asp-AMC as a substrate; format: cell-based
T3 sequence (P29466 whole entry): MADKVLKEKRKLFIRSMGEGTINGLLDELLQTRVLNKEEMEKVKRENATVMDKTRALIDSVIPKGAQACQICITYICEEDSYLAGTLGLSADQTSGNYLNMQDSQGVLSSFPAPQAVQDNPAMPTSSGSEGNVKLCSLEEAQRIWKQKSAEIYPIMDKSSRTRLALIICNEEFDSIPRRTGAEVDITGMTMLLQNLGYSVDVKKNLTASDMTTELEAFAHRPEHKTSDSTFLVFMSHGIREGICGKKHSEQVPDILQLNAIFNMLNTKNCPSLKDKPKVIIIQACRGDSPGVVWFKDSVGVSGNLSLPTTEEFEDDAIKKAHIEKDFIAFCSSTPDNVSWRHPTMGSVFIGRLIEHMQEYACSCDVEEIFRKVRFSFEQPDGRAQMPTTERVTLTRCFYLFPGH

Caspase-3 [3] = biological target: T2, Caspase-3; test: Amidolytic activity of THP.1 cell lysate against Caspase-3 using C3-Asp-AMC as a substrate at 10e -4 M concentration; NI is No Inhibition
Caspase-1 [4] = biological target: T3, Caspase-1; test: Ability to inhibit IL-1 beta converting enzyme was evaluated in LPS-stimulated human whole blood; format: tissue-based
Prothrombin = Prothrombin (Homo sapiens, UniProt P00734); test: Ability to inhibit Thrombin was evaluated by amidolytic method using fluorogenic or chromogenic substrates
Serine protease 1 = Serine protease 1 (Homo sapiens, UniProt P07477); test: Ability to inhibit Trypsin was evaluated by amidolytic method using fluorogenic or chromogenic substrates
Sequence of Serine protease 1 (P07477 whole entry): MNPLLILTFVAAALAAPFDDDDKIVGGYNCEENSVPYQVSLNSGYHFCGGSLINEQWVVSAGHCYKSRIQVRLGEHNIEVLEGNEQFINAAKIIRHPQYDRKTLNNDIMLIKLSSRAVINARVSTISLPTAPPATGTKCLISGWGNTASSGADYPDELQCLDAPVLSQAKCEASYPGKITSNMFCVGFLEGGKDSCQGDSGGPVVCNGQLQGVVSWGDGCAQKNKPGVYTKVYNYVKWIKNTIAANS

IC50 (Papain): 70 nM
SMILES: CC[C@H](C)[C@H](NC(=O)[C@H](CCCN=C(N)N)NC(=O)OCc1ccccc1)C(=O)N[C@H](C=O)Cc1ccccc1

IC50 (Papain): 65000 nM
SMILES: CC[C@H](C)[C@H](NC(=O)[C@H](CCCN=C(N)N)NC(=O)OCc1ccccc1)C(=O)N[C@H](CC=O)Cc1ccccc1

IC50 (Papain): 8500 nM
SMILES: CC[C@H](C)[C@H](NC(=O)[C@H](CCCN=C(N)N)NC(=O)OCc1ccccc1)C(=O)N[C@@H](C=O)Cc1ccccc1

IC50 (Caspase-3 [1]): 438 nM
IC50 (Caspase-1 [2]): 22.3 nM
SMILES: CC(=O)N[C@@H](CC(=O)O)C(=O)N[C@@H](CCC(=O)O)C(=O)N[C@H](C(=O)N[C@H](CC=O)CC(=O)O)C(C)C

IC50 (Papain): 12500 nM
SMILES: CC(C)COC(=O)N[C@@H](Cc1ccccc1)C(=O)N[C@@H](C=O)CCCN=C(N)N

IC50 (Papain): 130 nM
SMILES: CC(C)COC(=O)N[C@@H](Cc1ccccc1)C(=O)N[C@H](C=O)CCCNC(=N)N

IC50 (Caspase-3 [3]): Not Active
IC50 (Caspase-1 [4]): 2900 nM
IC50 (Caspase-1 [2]): 142000 nM
SMILES: CC(=O)N[C@@H](Cc1ccc(O)cc1)C(=O)N[C@H](C(=O)N[C@@H](C)C(=O)N[C@H](CC=O)CC(=O)O)C(C)C

IC50 (Prothrombin): 190 nM
IC50 (Serine protease 1): 1760 nM
SMILES: CC(C)(C)OC(=O)N[C@H](Cc1ccccc1)C(=O)N1CCC[C@@H]1C(=O)N[C@H](CC=O)CCCN=C(N)N

IC50 (Prothrombin): 5440 nM
IC50 (Serine protease 1): 1790 nM
SMILES: CC(C)(C)OC(=O)N[C@H](Cc1ccccc1)C(=O)N1CCC[C@@H]1C(=O)N[C@@H](C=O)CCCN=C(N)N

IC50 (Caspase-3 [1]): 190000 nM
IC50 (Caspase-1 [4]): 2000 nM
IC50 (Caspase-1 [2]): 68000 nM
SMILES: CC(=O)N[C@@H](Cc1ccc(O)cc1)C(=O)N[C@H](C(=O)N[C@@H](C)C(=O)N[C@H](C=O)CC(=O)O)C(C)C

IC50 (Papain): 105000 nM
SMILES: CC(C)COC(=O)N[C@@H](Cc1ccccc1)C(=O)N[C@H](CC=O)CCCNC(=N)N

SMILES: CC(=O)N[C@@H](CC(=O)O)C(=O)N[C@@H](CCC(=O)O)C(=O)N[C@H](C(=O)N[C@H](C=O)CC(=O)O)C(C)C
IC50 (Caspase-3 [3]): Not Active
IC50 (Caspase-1 [2]): 70000 nM

IC50 (Prothrombin): 9 nM
IC50 (Serine protease 1): 3 nM
SMILES: CC(C)(C)OC(=O)N[C@H](Cc1ccccc1)C(=O)N1CCC[C@@H]1C(=O)N[C@H](C=O)CCCNC(=N)N

From ChEMBL document CHEMBL1130835, “Peptidyl beta-homo-aspartals: specific inhibitors of interleukin-1 beta converting enzyme and its homologues (caspases)” (Bioorg Med Chem Lett, 1998)
